Experiments:
PC-12 [1] = test: Neuroprotective activity in rat PC-12 cells assessed as increase in NGF-mediated neurite outgrowth at 1 to 10 uM incubated for 48 hrs by phase contrast microscopic analysis; format: functional, cell-based; conditions: dose 1-10 µM
Homo sapiens = organism: Homo sapiens; test: Selectivity index, ratio of IC50 for inhibition of HDAC1 (unknown origin) to IC50 for inhibition of HDAC6 (unknown origin)
[2] = target: T1, Protein deacetylase HDAC6 (Homo sapiens, UniProt Q9UBN7); test: Inhibition of HDAC6 (unknown origin) using fluorogenic peptide RHKKAc-AMC as substrate by fluorescence-based assay
T1 sequence (Q9UBN7 whole entry): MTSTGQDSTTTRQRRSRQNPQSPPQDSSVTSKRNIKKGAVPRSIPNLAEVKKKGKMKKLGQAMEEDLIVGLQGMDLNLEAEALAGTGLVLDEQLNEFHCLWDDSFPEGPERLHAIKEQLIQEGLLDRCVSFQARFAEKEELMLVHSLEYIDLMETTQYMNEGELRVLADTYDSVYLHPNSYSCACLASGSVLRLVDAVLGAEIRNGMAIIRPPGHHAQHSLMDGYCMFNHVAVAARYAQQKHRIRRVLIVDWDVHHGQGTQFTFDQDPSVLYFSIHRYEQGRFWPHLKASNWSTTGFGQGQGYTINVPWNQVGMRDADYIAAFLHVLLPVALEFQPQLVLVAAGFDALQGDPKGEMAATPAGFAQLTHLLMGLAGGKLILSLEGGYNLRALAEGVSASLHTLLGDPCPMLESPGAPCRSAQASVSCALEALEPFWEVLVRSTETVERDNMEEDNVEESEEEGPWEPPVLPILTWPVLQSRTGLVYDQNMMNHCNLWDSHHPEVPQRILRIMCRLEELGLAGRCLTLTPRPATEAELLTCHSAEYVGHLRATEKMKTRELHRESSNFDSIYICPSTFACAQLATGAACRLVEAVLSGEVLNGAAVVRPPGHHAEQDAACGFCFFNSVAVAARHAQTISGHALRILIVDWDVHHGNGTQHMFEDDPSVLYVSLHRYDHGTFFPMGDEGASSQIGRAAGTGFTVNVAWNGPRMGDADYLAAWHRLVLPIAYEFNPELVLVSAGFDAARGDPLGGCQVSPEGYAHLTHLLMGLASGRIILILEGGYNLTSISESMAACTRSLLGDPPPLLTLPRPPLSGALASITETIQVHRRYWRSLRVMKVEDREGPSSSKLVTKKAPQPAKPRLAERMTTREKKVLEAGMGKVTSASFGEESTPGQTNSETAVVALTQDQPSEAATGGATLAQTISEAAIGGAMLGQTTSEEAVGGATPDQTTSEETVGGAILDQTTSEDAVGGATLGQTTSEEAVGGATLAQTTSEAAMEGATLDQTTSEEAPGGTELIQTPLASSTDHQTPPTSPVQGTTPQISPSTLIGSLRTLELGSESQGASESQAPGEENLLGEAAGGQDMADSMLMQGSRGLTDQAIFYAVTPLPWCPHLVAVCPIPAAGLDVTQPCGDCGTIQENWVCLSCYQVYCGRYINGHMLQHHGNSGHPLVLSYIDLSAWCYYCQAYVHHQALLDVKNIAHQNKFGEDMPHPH

PC-12 [3] = test: Neuroprotective activity in rat PC-12 cells assessed as increase in NGF-mediated neurite outgrowth at 3 uM incubated for 48 hrs by phase contrast microscopic analysis; format: functional
PC-12 [4] = test: Cytotoxicity against rat PC-12 cells assessed as reduction in cell viability at 10 uM; format: toxicity, cell-based; conditions: pc-12, 10 µM
Histone deacetylase 1 = Histone deacetylase 1 (Homo sapiens, UniProt Q13547); test: Inhibition of HDAC1 (unknown origin) using fluorogenic peptide RHKKAc-AMC as substrate by fluorescence-based assay
Chain of Histone deacetylase 1 (Q13547 whole entry): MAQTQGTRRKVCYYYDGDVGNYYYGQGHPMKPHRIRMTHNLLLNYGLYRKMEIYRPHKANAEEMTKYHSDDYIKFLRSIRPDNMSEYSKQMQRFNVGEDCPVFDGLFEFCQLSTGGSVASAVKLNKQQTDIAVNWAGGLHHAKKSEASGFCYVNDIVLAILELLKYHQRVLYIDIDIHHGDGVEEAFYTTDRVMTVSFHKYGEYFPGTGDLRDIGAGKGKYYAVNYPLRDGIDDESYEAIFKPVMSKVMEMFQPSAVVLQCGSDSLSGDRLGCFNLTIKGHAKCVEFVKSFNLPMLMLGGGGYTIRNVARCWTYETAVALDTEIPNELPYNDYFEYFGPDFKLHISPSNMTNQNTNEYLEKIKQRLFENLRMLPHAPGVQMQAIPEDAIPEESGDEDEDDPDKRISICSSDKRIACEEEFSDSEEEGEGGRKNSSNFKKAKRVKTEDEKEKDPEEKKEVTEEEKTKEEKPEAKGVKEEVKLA

PC-12 [5] = test: Neuroprotective activity against H202-induced oxidative damage in rat PC-12 cells assessed as increase in cell viability at 10 uM; format: functional
Histone deacetylase 5 = Histone deacetylase 5 (Homo sapiens, UniProt Q9UQL6); test: Inhibition of HDAC5 (unknown origin) using trifluoroacetyl lysine as substrate by fluorescence-based assay
Chain of Histone deacetylase 5 (Q9UQL6 whole entry): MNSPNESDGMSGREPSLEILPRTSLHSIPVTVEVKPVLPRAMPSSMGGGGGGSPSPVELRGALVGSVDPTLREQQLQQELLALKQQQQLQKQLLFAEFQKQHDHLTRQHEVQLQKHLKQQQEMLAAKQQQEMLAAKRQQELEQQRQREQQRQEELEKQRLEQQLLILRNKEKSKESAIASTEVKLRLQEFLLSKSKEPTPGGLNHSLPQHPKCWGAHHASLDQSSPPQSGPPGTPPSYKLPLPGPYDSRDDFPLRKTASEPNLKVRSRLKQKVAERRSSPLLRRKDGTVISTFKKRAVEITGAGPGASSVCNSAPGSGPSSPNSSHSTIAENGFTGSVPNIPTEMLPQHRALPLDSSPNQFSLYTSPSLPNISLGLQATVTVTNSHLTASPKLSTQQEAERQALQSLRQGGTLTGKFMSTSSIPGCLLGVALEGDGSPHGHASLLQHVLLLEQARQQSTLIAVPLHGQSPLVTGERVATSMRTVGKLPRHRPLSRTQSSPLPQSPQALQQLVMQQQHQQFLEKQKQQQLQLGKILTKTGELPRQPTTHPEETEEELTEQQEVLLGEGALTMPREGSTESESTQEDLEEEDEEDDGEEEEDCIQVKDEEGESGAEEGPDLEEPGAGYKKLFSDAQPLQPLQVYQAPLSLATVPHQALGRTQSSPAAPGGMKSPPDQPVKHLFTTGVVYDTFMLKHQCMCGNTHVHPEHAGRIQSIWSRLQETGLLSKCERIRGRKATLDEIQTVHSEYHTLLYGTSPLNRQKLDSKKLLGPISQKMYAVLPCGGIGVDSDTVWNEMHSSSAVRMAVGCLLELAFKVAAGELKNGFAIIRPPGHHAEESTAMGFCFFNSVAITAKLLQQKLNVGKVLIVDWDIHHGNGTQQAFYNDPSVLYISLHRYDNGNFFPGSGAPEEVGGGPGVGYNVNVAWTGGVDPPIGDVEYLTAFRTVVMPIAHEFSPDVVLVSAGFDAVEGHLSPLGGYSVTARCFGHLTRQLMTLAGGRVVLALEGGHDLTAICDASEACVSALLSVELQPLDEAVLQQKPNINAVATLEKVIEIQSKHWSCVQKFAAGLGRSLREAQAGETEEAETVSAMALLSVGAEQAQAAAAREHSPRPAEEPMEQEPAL

PC-12 [6] = test: Neuroprotective activity against H202-induced oxidative damage in rat PC-12 cells assessed as increase in cell viability at 1 to 10 uM; format: functional, cell-based; conditions: dose 1-10 µM
Histone deacetylase 3 = Histone deacetylase 3 (Homo sapiens, UniProt O15379); test: Inhibition of HDAC3 (unknown origin) using fluorogenic peptide RHKKAc-AMC as substrate by fluorescence-based assay
Chain of Histone deacetylase 3 (O15379 whole entry): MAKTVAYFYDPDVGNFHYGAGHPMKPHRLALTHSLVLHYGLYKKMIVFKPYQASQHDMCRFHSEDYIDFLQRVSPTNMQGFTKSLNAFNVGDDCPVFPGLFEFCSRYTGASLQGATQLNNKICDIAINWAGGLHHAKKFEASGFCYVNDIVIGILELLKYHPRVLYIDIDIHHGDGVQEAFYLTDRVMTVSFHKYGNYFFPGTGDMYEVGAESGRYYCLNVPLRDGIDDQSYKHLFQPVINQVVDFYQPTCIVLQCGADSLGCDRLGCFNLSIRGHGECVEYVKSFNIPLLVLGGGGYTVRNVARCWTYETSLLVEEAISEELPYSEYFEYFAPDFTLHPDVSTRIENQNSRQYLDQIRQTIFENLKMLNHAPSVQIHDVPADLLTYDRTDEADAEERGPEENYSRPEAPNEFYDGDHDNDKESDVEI

PC-12 [7] = test: Neuroprotective activity in rat PC-12 cells assessed as increase in NGF-mediated neurite outgrowth at 10 uM incubated for 48 hrs by phase contrast microscopic analysis; format: functional
Histone deacetylase 2 = Histone deacetylase 2 (Homo sapiens, UniProt Q92769); test: Inhibition of HDAC2 (unknown origin) using fluorogenic peptide RHKKAc-AMC as substrate by fluorescence-based assay
Chain of Histone deacetylase 2 (Q92769 whole entry): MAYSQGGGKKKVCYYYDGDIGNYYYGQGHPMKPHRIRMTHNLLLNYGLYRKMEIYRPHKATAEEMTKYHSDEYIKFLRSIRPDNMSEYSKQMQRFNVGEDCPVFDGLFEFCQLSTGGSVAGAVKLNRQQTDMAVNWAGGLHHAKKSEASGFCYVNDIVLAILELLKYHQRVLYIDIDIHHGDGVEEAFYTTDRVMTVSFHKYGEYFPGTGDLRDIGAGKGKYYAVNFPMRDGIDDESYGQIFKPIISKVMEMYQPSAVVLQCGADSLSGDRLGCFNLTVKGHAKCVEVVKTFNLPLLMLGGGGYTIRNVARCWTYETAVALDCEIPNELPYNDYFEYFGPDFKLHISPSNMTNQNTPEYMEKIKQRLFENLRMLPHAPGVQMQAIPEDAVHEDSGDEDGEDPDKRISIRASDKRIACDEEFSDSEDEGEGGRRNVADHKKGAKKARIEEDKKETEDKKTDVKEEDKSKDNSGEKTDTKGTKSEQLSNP

Row | Ratio IC50 (Homo sapiens) | IC50 [2] [µM] | IC50 (Histone deacetylase 1) [µM] | SMILES | Activity (PC-12 [3]) [%] | other results
1 | 45 | 0.0234 | 1.05 | O=C(NO)c1ccc(CN2CCN(C(=O)c3c[nH]c4cc(OCc5ccccc5)ccc34)CC2)cc1 | 37.3 | Activity (PC-12 [1]): Dose-Dependent Effect; Activity (PC-12 [4]): Toxic
2 | 39 | 0.0552 | 2.18 | Cn1cc(C(=O)N2CCN(Cc3ccc(C(=O)NO)cc3)CC2)c2ccccc21 | 27.5 | –
3 | – | – | – | O=C1CN(Cc2ccc(C(=O)NO)cc2)C(=O)[C@@H](Cc2c[nH]c3ccccc23)N1 | 12.3 | –
4 | 102 | 0.0136 | 1.39 | Cc1cccc2c(C(=O)N3CCN(Cc4ccc(C(=O)NO)cc4)CC3)c[nH]c12 | 34.7 | Activity (PC-12 [1]): Dose-Dependent Effect; Activity (PC-12 [5]): 78.5%; IC50 (Histone deacetylase 5): > 50 µM; Activity (PC-12 [6]): Dose-Dependent Effect; IC50 (Histone deacetylase 3): 1.85 µM; Activity (PC-12 [7]): 12.3%; Activity (PC-12 [4]): 39.1%; IC50 (Histone deacetylase 2): 2.25 µM
5 | – | – | – | CN1C(=O)CN(Cc2ccc(C(=O)NO)cc2)C(=O)C1Cc1ccccc1 (centres undefined) | 12.3 | –
6 | 55 | 0.026 | 1.43 | O=C(NO)c1ccc(CN2CCN(C(=O)c3c[nH]c4ccc(Cl)cc34)CC2)cc1 | 12.3 | –
7 | – | 0.0785 | > 50 | O=C(NO)c1ccc(CN2CCN(C(=O)c3c[nH]c4cccc(Cc5ccccc5)c34)CC2)cc1 | 31.8 | Activity (PC-12 [1]): Dose-Dependent Effect
8 | 87 | 0.0144 | 1.26 | O=C(NO)c1ccc(CN2CCN(C(=O)c3c[nH]c4ccccc34)CC2)cc1 | 12.3 | –
9 | – | – | – | C=CCN1C(=O)CN(Cc2ccc(C(=O)NO)cc2)C(=O)C1Cc1ccccc1 (centres undefined) | 12.3 | –
10 | – | – | – | O=C(NO)c1ccc(CN2CC(=O)N(Cc3ccccc3)C(Cc3ccccc3)C2=O)cc1 (centres undefined) | 12.3 | –
11 | – | 0.0885 | – | O=C(NO)c1ccc(CN2CCN(C(=O)c3cc4ccccc4[nH]3)CC2)cc1 | – | –
12 | 85 | 0.014 | 1.19 | O=C(NO)c1ccc(CN2CCN(C(=O)c3c[nH]c4cc(F)ccc34)CC2)cc1 | 12.3 | –
13 | – | – | – | CN1CCc2c(c3ccccc3n2Cc2ccc(C(=O)NO)cc2)C1 | – | Activity (PC-12 [6]): Dose-Dependent Effect

From ChEMBL document CHEMBL5236672, “Discovery of indole-piperazine derivatives as selective histone deacetylase 6 inhibitors with neurite outgrowth-promoting activities and neuroprotective activities” (Bioorg Med Chem Lett, 2023)
